Experimental data from the SangsterLogP compilation.

Experiment: method code SF-HPLC, from PMID: 1388632
Details: pH 7.4

Structure (SMILES) | logD
CC(=O)OCc1c2c(n3c1C(OC(C)=O)CC3)C(=O)C(C)=C(N1CC1)C2=O (centres undefined) | 1.75
CC(=O)C1=CC(=O)c2c(c(CO)c3n2CCC3O)C1=O (centres undefined) | -0.09
CC(=O)OCc1c2c(n3c1C(O)CCC3)C(=O)C=C(C(C)=O)C2=O (centres undefined) | 0.89
CC(=O)C1=C(C)C(=O)c2c(c(CO)c3n2CCC3O)C1=O (centres undefined) | 1.14
CCNC(=O)OCc1c2c(n3c1C(O)CC3)C(=O)C(C)=C(OC)C2=O (centres undefined) | 1.83
CC(=O)OCc1c2c(n3c1CCC3)C(=O)C(C)=C(C(C)=O)C2=O | 2.81
CCCC(=O)OCc1c2c(n3c1C(OC(=O)CCC)CC3)C(=O)C(C)=C(C(C)=O)C2=O (centres undefined) | 4
CC(=O)C1=CC(=O)c2c(c(CO)c3n2CCCC3O)C1=O (centres undefined) | 0.37
CC(=O)OCc1c2c(n3c1C(OC(C)=O)CC3)C(=O)C=C(C(C)=O)C2=O (centres undefined) | 1.15
